From patent publication US20230348373A1, “DEUTERATED DERIVATIVES OF 6,8-BIS(BENZYLSULFANYL)OCTANOIC ACID” (Rafael Pharmaceuticals, Inc., priority 2019, published 2023)
pIC50: −log10 of the molar value.

Legend:
[1] = system: LoVo colorectal cancer cell line; test: Cell viability (Cell Titer-Glo) in LoVo cells; format: cell-based; conditions: Homo sapiens, replete media, 48 h incubation, 24 h recovery; for pIC50: first value of IC50/IC90; for IC90: second value of IC50/IC90
Method: (§1) Biological activity was assessed in vitro in the following pancreatic cancer and colorectal cancer cell lines. • Pancreatic cancer cell lines • Panc-1: non-metastatic; mutations: KRAS, TP53 • AsPC-1: metastatic; mutations: KRAS, TP53, CDKN2A, MAP2K4 • Colorectal cancer cell lines • LoVo: metastatic; mutations: APC, KRAS, FBXW7, […] • SW620: metastatic; mutations: KRAS, TP53
(§2) Tumor cells were maintained at 37° C. in a humidified 5% CO2 atmosphere in T75 tissue culture flask containing 10 mL of RPMI 1640 (PANC-1), DMEM (AsPC-1), F12K (LoVo) or L15 (SW620), containing 2 mM L-glutamine, 10% fetal bovine serum (FBS) and 1% penicillin and streptomycin. The tumor cells were split at a ratio of 1:5 every 4-5 days by trypsinization and suspended in fresh medium in a new flask. Cells were harvested for experiments at 80-95% confluency.
(§3) PANC-1 cells in RPMI medium with 10% FBS (12,000 cells/well in 96 well plate) were incubated with increasing concentrations (12.5, 25, 50, 100, 150, and 200 µM), of test compound at 37° C. under 5% CO2 for 48 hours. Cells were undergone for another 24 hr recovery, in fresh RPMI media without serum. Cell viability was assessed using the Promega Cell Titer-Glo assay kit, following their protocol. Cell viability was measured based on the amount of ATP produced by the total number of cells present in each well using FLUOSTAR OPTIMA plate reader in the Luminescence mode. Production of ATP in Luminescence unit is directly proportional to the number of live cells. % live cells were calculated and SEM was also calculated as average of 3 replica wells.
(§4) Test compounds were screened for activity in AsPC-1 cells and the colon cancer cells using similar procedures but replacing RPMI with the respective media indicated above for the initial 48 hour incubation (i.e., DMEM (AsPC-1), F12K ( LoVo ), or L15 (SW620)), and RPMI was always used for the 24 hour recovery. Cells seeded for AsPc-1 (25,000 cells/well), LoVo (25,000 cells/well) and SW620 (25,000 cells/well) to achieve ~ 50% confluency after 24 hrs of seeding.

[2] = system: AsPC-1 pancreatic cancer cell line; test: Cell viability (Cell Titer-Glo) in AsPC-1 cells; format: cell-based; conditions: Homo sapiens, ASPC1, replete media, 48 h incubation, 24 h recovery; for pIC50: first value of IC50/IC90
Method: as §1, §2, §3, §4

[3] = system: Panc-1 pancreatic cancer cell line; test: Cell viability (Cell Titer-Glo) in Panc-1 cells; format: cell-based; conditions: Homo sapiens, replete media, 48 h incubation, 24 h recovery; for pIC50: first value of IC50/IC90; for IC90: second value of IC50/IC90
Method: as §1, §2, §3

[4] = system: SW620 colorectal cancer cell line; test: Cell viability (Cell Titer-Glo) in SW620 cells; format: cell-based; conditions: Homo sapiens, SW-620, replete media, 48 h incubation, 24 h recovery; for pIC50: first value of IC50/IC90
Method: as §1, §2, §3, §4

[5] = after IV dosing; Pardee et al. 2014; cited from earlier work

Compound | pIC50 [1] | pIC50 [2] | pIC50 [3] | pIC50 [4] | IC90 [1] [µM] | IC90 [3] [µM] | half-life [5] [h] | IC90 ([2]; second value of IC50/IC90) [µM] | IC90 ([4]; second value of IC50/IC90) [µM]
[2H]C(O)(CCC(CCSCc1ccccc1)SCc1ccccc1)CC(=O)O (centres unmarked) [Compound I-77] | < 3.52 | 3.50 | < 3.52 | < 3.52 |  |  |  |  | 
[2H]C([2H])(CCC(CCSCc1ccccc1)SCc1ccccc1)CC(=O)O (centres unmarked) [Compound I-10, 6,8-bis(benzylsulfanyl)-3,3-dideuterio-octanoic acid] | < 3.52 |  | < 3.52 |  |  |  |  |  | 
[2H]C(O)(CCC(CCSCc1ccccc1)SCc1ccccc1)CC(=O)N1CCNCC1 (centres unmarked) [Compound I-79] | 3.74 |  | 4.36 |  | 254 | 282 |  |  | 
O=C(O)CCCCC(CCSCc1ccccc1)SCc1ccccc1 (centres unmarked) [CPI-613, 6,8-bis(benzylsulfanyl)octanoic acid] |  |  |  |  |  |  | 1 to 2 |  | 
[2H]C(O)(CCC(CCSCc1ccccc1)SCc1ccccc1)CC(N)=O (centres unmarked) [Compound I-78] | 4.59 | 4.55 |  | 4.55 | 39 | 73 |  | 65 | 37
[2H]C([2H])(CC(=O)O)C([2H])([2H])CC(CCSCc1ccccc1)SCc1ccccc1 (centres unmarked) [Compound I-24, 6,8-bis(benzylsulfanyl)-3,3,4,4-tetradeuterio-octanoic acid] | < 3.52 |  | < 3.52 |  |  |  |  |  | 
